This note sets out measurements from article PMC11181336, “Discovery of ITI-333, a Novel Orally Bioavailable Molecule Targeting Multiple Receptors for the Treatment of Pain and Other Disorders” (Journal of Medicinal Chemistry, 2024).

The subject of assay [1] is male C57Bl/6 mice. Put plainly: Mouse formalin paw assay for inflammatory pain. Conditions: SC administration 30 min prior; morphine 5 mg/kg; compound 5 0.3, 1 or 3 mg/kg. It is filed as in vivo.
Assay [2] concerns male CD-1 mice. The note with it: mouse, in vivo.
Assay [3] addresses human recombinant dopamine D1 receptor (Homo sapiens, UniProt P21728). Kind of assay: Dopamine D1 receptor binding, [3H]SCH 23390 displacement. Conditions: for inhibition at 0.1 µM: read-out: D1 % inhibition.
The target in assay [4] is human recombinant dopamine D2 short receptor (Homo sapiens, UniProt P14416). Put plainly: Dopamine D2 receptor binding, [3H]7-OH-DPAT displacement. Conditions: for inhibition at 0.1 µM: read-out: D2 % inhibition.
The target of assay [5] is T1, human full-length recombinant serotonin 5-HT2A receptors (Homo sapiens, UniProt P28223).
T1 construct: human full-length recombinant serotonin 5-HT2A receptors expressed in HEK-293E cells
Kind of assay: biochemical. It is filed as binding. Conditions: for inhibition at 0.1 µM: read-out: 5-HT2A % inhibition.

Assay [6] concerns the target T2, human recombinant 5-HT transporter (SERT) (Homo sapiens, UniProt P31645).
T2 construct: host or cells: CHO-S / SERT (h), cell membrane homogenates
Put plainly: biochemical. It is filed as binding. Conditions: for inhibition at 0.2 µM / inhibition at 0.1 µM: read-out: SERT % inhibition.

[7] abbreviates: inhibition at 100 nM, NI = no inhibition.

One may read the inhibition as the percentage by which the read-out fell short of the control. The term Ki denotes a dissociation constant, usually derived from enzyme kinetics or from competition with a known ligand.

Like-named read-outs stand apart in the source and are kept apart here. Some results are limits rather than exact numbers.

human recombinant dopamine D2 short receptor, sequence (P14416 1-414 isoform P14416-2): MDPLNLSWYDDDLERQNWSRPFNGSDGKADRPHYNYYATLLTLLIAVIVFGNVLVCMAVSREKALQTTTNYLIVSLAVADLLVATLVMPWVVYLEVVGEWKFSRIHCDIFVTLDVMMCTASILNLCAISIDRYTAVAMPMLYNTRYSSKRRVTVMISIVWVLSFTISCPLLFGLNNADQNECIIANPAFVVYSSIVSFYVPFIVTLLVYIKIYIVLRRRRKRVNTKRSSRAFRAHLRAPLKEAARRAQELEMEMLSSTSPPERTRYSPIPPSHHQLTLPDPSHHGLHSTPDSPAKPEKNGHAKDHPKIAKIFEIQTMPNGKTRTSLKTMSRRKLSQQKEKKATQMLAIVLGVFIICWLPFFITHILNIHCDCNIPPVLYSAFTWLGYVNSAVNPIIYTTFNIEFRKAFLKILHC
human recombinant dopamine D1 receptor, sequence (P21728 whole entry): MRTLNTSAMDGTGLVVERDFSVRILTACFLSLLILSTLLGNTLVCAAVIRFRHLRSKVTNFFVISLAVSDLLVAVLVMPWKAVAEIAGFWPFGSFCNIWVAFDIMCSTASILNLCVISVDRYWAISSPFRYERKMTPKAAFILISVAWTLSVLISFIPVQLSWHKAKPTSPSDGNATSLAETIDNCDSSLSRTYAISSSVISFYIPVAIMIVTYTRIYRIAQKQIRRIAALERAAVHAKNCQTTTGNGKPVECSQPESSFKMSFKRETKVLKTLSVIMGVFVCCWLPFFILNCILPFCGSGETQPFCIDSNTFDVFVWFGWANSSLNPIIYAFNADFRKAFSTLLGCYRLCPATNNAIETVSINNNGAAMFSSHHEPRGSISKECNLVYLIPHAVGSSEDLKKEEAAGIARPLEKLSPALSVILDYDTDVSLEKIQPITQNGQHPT
T1 sequence (P28223 whole entry): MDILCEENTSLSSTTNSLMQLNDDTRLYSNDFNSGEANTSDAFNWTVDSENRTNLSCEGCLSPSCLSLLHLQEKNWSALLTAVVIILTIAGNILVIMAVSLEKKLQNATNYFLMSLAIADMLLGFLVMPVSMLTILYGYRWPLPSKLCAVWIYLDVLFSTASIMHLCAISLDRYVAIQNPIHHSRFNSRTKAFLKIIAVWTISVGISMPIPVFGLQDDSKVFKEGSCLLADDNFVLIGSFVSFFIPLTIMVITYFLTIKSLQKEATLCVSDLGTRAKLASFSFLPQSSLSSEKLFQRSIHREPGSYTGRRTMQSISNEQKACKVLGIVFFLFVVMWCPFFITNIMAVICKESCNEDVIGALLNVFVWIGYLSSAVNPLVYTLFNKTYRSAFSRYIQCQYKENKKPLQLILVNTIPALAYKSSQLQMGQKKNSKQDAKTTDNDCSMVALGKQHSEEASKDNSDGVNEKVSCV
T2 sequence (P31645 whole entry): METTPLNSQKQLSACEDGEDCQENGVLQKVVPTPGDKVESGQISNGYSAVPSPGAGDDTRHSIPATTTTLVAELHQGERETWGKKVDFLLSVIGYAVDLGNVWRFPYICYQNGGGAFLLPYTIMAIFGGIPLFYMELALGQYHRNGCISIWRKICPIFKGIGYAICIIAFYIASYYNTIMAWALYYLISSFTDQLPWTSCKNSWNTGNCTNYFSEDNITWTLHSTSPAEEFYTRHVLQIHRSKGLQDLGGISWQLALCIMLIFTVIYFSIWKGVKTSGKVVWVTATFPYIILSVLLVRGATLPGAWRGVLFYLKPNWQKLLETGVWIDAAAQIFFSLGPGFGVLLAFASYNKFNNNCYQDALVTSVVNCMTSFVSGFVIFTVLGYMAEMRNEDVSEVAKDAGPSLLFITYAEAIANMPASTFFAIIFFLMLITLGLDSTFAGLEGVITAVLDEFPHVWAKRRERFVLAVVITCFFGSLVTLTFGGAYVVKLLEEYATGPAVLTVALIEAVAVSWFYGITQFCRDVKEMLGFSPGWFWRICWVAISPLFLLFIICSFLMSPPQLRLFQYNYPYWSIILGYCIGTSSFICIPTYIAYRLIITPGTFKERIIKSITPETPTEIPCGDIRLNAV

With `CN1CC[C@]23c4c5ccc(O)c4O[C@H]2[C@@H](O)C=C[C@H]3[C@H]1C5` [morphine], the “licking response to formalin injection” value in assay [1] is listed as “significantly suppressed”. Further, in assay [2], the “analgesic effect after pretreatment with naloxone” value is given as “attenuated” and the “latency to tail flick compared to the vehicle” value was “significantly increased”.

For the compound `O=C1CN2c3c(cccc3[C@@H]3CN(CCCOc4ccc(F)cc4)CC[C@@H]32)N1` [compound 5, (6bR,10aS)-8-(3-(4-Fluorophenoxy)propyl)-6b,7,8,9,10,10a-hexahydro-1H-pyrido[3′,4′:4,5]pyrrolo[1,2,3-de]quinoxalin-2(3H)-one], the “licking response to formalin injection” value in assay [1] is on record as “dose-dependently reduced”. Further, in assay [3], the “D1(Ki or (% Inhibition)): % inhibition” value is given as 50 (44%) and the inhibition at 0.1 µM worked out at 44%.

Consider `Cc1cc(F)cc(C)c1OCCCN1CC[C@H]2[C@@H](C1)c1cccc3c1N2CC(=O)N3` [compound 43, (6bR,10aS)-8-(3-(4-Fluoro-2,6-dimethylphenoxy)propyl)-6b,7,8,9,10,10a-hexahydro-1H-pyrido[3′,4′:4,5]-pyrrolo[1,2,3-de]quinoxalin-2(3H)-one], for which the values for the inhibition at 0.1 µM in assay [3], in assay [4] and in assay [5] were below 0%, below 0% and 40%, respectively. The inhibition at 0.2 µM in assay [6] worked out at 34%.

Regarding `O=C1CN2c3c(cccc3[C@@H]3CN(CCCCOc4ccc(F)cc4)CC[C@@H]32)N1` [compound 50, (6bR,10aS)-8-(4-(4-Fluorophenoxy)butyl)-6b,7,8,9,10,10a-hexahydro-1H-pyrido[3′,4′:4,5]pyrrolo[1,2,3-de]quinoxalin-2(3H)-one], the inhibition at 0.1 µM in assay [3] (setting [7]) is 5.4%; in assay [4] (setting [7]), 27%; in assay [5], 37%; in assay [6], below 0%.

In the case of `O=C1CN2c3c(cccc3[C@@H]3CN(CCCOc4ccc(OCc5ccccc5)cc4)CC[C@@H]32)N1` [compound 35, (6bR,10aS)-8-(3-(4-(Benzyloxy)phenoxy)propyl)-6b,7,8,9,10,10a-hexahydro-1H-pyrido[3′,4′:4,5]-pyrrolo[1,2,3-de]quinoxalin-2(3H)-one], the inhibition at 0.1 µM in assay [3] (setting [7]) was determined as 4.6%; in assay [4] (setting [7]), 23%; in assay [5], 76%; in assay [6], 68%.

For `CN(CCCN1CC[C@H]2[C@@H](C1)c1cccc3c1N2CC(=O)N3)c1ccc(F)cc1` [compound 48, (6bR,10aS)-8-(3-((4-Fluorophenyl)(methyl)amino)propyl)-6b,7,8,9,10,10a-hexahydro-1H-pyrido[3′,4′:4,5]pyrrolo[1,2,3-de]quinoxalin-2(3H)-one], the inhibition at 0.1 µM in assay [3] (setting [7]) was determined as 21%; in assay [4] (setting [7]), 14%; in assay [5], 76%. Moreover, in assay [6], the inhibition at 0.2 µM turned out to be 53%.

Turning to `O=C1CN2c3c(cccc3[C@@H]3CN(CCCOc4ccc(O)cc4)CC[C@@H]32)N1` [compound 33, (6bR,10aS)-8-(3-(4-Hydroxyphenoxy)propyl)-6b,7,8,9,10,10a-hexahydro-1H-pyrido[3′,4′:4,5]pyrrolo-[1,2,3-de]quinoxalin-2(3H)-one], the inhibition at 0.1 µM in assay [3] (setting [7]) is below 0%; in assay [4] (setting [7]), 41%; in assay [5], 77%; in assay [6], 11%.

Take `O=C1CN2c3c(cccc3[C@@H]3CN(CCCO)CC[C@@H]32)N1` [compound 22, (6bR,10aS)-8-(3-Hydroxypropyl)-6b,7,8,9,10,10a-hexahydro-1H-pyrido[3′,4′:4,5]pyrrolo[1,2,3-de]quinoxalin-2(3H)-one]: the figures for the inhibition at 0.1 µM in assay [3] (setting [7]), in assay [4] (setting [7]) and in assay [5] were below 0%, below 0% and 8%, respectively. Further, the inhibition at 0.2 µM in assay [6] was below 0%.

Regarding `O=C1CN2c3c(cccc3[C@@H]3CN(CCCOc4ccccc4)CC[C@@H]32)N1` [compound 23, (6bR,10aS)-8-(3-Phenoxypropyl)-6b,7,8,9,10,10a-hexahydro-1H-pyrido[3′,4′:4,5]-pyrrolo[1,2,3-de]quinoxalin-2(3H)-one], the inhibition at 0.1 µM in assay [3] amounted to 24%; in assay [4], 34%; in assay [5], 84%. In addition, the Ki in assay [5] came to 2.8 nM. Besides, the inhibition at 0.2 µM in assay [6] was determined as 8%.

In the case of `O=C1CN2c3c(cccc3[C@@H]3CN(CCCOc4ccc(Br)cc4)CC[C@@H]32)N1` [compound 30, (6bR,10aS)-8-(3-(4-Bromophenoxy)propyl)-6b,7,8,9,10,10a-hexahydro-1H-pyrido[3′,4′:4,5]pyrrolo-[1,2,3-de]quinoxalin-2(3H)-one], the inhibition at 0.1 µM is below 0% in assay [3] (setting [7]), 8.4% in assay [4] (setting [7]), 70% in assay [5] and 44% in assay [6].

As to `O=C1CN2c3c(cccc3[C@@H]3CN(CCCc4n[nH]c5cc(F)ccc45)CC[C@@H]32)N1` [compound 24, (6bR,10aS)-8-(3-(6-Fluoro-1H-indazol-3-yl)propyl)-6b,7,8,9,10,10a-hexahydro-1H-pyrido[3′,4′:4,5]pyrrolo-[1,2,3-de]quinoxalin-2(3H)-one], the Ki in assay [3] was 5.2 nM; in assay [4] it was 15 nM; in assay [5] it was 2.6 nM; in assay [6] it was 540 nM.

`O=C1CCN2c3c(cccc3[C@@H]3CN(CCCOc4ccc(F)cc4)CC[C@@H]32)N1` [compound 53, (8aS,12aR)-11-(3-(4-Fluorophenoxy)propyl)-6,7,8a,9,10,11,12,12a-octahydro-[1,4]diazepino[3,2,1-hi]pyrido[4,3-b]indol-5(4H)-one]: the inhibition at 0.1 µM in assay [3] (setting [7]) was 14%; in assay [4] (setting [7]), 24%; in assay [5] it was 93%. In addition, the inhibition at 0.2 µM in assay [6] is 29%.
